Patent US20250296937A1, “CYCLIC BISBENZYL TETRAHYDROISOQUINOLINE COMPOUND, AND PREPARATION METHOD THEREFOR AND USE THEREOF” (Shanghai Institute of Materia Medica, Chinesse Academy of …, priority 2021, published 2025)

Legend:
[1] = system: 2019 novel coronavirus (SARS-CoV-2) original strain; experiment: Replication inhibitory activity against SARS-CoV-2 original strain in Vero E6 cells (qRT-PCR); format: cell-based
[2] = cited from earlier work
Vero E6 cells = experiment: Cytotoxicity test on Vero E6 cells (CCK8); format: cell-based; conditions: inventors' screening of natural products
Procedure: In this embodiment, the half toxicity concentration of each embodiment on Vero E6 cells was determined by CCK8 kit analysis (CC50).

COc1cc2c3cc1Oc1c(OC)c(OC)cc4c1[C@H](Cc1ccc(cc1)Oc1cc(ccc1O)C[C@H]3N(C)CC2)N(C)CC4 [Oxyacanthine, oxyacanthine, reference compound]
antiviral activity against novel coronaviruses (background statement) [1]: weak antiviral activity
solubility in ethanol, chloroform, ether, dilute acid ([2]; ethanol, chloroform, ether, dilute acid): soluble
solubility in water ([2]; water): almost insoluble
cytotoxicity (background statement) (Vero E6 cells): high cytotoxicity
